Data from ChEMBL document CHEMBL1201862, “PubChem BioAssay data set” (2004).
Activity calls are given as the source filed them.

Key:
cells [1] = assay type: functional, cell-based
[2] = target: T1, Trace amine-associated receptor 1 (Homo sapiens, UniProt Q96RJ0); experiment: Fluorescence-based cell-based high throughput dose response assay to identify agonists of the human trace amine associated receptor 1 (TAAR1).; assay type: functional
T1 sequence (Q96RJ0 whole entry): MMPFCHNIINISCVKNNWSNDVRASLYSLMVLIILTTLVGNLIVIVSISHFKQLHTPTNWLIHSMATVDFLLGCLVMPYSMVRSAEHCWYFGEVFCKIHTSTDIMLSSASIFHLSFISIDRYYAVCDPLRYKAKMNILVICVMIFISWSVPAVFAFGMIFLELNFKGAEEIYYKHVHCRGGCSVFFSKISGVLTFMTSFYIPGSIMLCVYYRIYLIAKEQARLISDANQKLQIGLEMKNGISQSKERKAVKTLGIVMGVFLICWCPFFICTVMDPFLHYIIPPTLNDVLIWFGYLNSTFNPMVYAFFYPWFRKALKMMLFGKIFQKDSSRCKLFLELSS

[3] = target: T1, Trace amine-associated receptor 1; experiment: Counterscreen for agonists of the human trace amine associated receptor 1 (hTAAR1): Fluorescence-based cell-based high throughput dose response assay to identify hTAAR1 agonist that also desensitize TAAR1 receptor response.; assay type: functional
cells [4] = assay type: functional, cell-based; remark: listed apart in the source
[5] = target: T2, Replicative DNA helicase DnaB (Mycobacterium tuberculosis, UniProt P9WMR3); experiment: DnaB intein splicing inhibitors, dose response, biochemical, cell-free fluorescence (AID 449749); assay type: functional
T2 sequence (P9WMR3 whole entry): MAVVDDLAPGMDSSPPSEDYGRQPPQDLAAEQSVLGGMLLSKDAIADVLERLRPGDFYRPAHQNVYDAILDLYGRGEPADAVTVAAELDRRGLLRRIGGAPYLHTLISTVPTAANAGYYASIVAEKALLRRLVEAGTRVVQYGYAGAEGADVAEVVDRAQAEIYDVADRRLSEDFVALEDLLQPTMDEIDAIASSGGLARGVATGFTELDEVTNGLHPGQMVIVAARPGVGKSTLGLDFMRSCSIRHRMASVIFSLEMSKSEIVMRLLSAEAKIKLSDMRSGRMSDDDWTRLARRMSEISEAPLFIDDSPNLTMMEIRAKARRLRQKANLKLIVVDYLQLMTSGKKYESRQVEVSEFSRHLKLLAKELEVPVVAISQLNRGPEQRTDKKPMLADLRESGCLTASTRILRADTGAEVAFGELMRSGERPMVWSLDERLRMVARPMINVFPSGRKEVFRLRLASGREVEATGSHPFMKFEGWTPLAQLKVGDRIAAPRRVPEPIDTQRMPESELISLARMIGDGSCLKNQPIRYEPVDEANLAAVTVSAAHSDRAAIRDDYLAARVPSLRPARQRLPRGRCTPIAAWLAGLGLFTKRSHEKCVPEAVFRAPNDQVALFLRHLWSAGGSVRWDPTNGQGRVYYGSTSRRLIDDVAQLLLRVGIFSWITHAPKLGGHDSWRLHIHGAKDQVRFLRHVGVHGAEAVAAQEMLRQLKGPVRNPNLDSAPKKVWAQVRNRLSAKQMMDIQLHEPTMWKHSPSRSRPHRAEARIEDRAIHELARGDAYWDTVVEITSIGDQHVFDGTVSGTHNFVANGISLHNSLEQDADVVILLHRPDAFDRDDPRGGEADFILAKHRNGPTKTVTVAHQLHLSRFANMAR

Protein RecA = target: T3, Protein RecA (Mycobacterium tuberculosis, UniProt P9WHJ3); experiment: Fluorescence Cell-Free Homogeneous Dose Retest to Identify Inhibitors of RecA-Intein Splicing Activity. [Related pubchem assays (depositor defined):AID2097, AID2223, AID489010, AID492950]; assay type: functional
T3 sequence (P9WHJ3 whole entry): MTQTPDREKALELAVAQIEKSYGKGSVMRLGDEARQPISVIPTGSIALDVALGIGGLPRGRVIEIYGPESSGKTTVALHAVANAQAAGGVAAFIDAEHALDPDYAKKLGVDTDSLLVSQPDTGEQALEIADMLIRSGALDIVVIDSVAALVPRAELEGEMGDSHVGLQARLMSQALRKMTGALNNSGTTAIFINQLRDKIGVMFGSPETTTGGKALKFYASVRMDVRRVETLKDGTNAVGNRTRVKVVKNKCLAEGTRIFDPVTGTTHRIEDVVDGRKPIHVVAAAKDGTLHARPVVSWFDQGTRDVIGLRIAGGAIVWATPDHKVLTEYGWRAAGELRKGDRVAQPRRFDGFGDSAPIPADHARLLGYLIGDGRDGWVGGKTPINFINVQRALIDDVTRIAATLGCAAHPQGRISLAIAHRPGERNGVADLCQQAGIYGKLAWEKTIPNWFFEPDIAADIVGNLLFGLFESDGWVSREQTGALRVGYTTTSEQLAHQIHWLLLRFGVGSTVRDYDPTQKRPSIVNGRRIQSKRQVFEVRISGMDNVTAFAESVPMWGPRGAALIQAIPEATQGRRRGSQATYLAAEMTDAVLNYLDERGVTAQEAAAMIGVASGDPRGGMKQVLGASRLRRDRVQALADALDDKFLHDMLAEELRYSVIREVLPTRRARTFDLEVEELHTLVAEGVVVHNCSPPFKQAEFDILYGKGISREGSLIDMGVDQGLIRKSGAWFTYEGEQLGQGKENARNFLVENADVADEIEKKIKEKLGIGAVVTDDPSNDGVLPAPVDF

Genome polyprotein = Genome polyprotein (dengue virus type 2, UniProt P29990); experiment: Dengue-2 NS5 methyltransferase inhibitors, primary screen, biochemical, confirmation dose response (AID 588689); assay type: functional
[6] = target: T4, Sentrin-specific protease 8 (Homo sapiens, UniProt Q96LD8); assay type: functional
T4 sequence (Q96LD8 whole entry): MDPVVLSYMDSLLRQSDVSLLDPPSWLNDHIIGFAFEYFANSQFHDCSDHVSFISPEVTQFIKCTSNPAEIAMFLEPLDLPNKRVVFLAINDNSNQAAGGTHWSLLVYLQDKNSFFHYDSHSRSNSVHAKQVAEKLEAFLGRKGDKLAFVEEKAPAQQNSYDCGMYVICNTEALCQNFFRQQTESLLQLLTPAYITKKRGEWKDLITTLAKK

[7] = target: T4, Sentrin-specific protease 8; assay type: functional; remark: listed apart in the source
Cytochrome P450 2D6 = Cytochrome P450 2D6 (Homo sapiens, UniProt P10635);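 also: CYP2D6 member of a cytochrome P450 panel assay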
Cytochrome P450 1A2 = target: T5, Cytochrome P450 1A2 (Homo sapiens, UniProt P05177);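 also: PubChem cytochrome P450 panel assay, CYP1A2 panel member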
T5 sequence (P05177 whole entry): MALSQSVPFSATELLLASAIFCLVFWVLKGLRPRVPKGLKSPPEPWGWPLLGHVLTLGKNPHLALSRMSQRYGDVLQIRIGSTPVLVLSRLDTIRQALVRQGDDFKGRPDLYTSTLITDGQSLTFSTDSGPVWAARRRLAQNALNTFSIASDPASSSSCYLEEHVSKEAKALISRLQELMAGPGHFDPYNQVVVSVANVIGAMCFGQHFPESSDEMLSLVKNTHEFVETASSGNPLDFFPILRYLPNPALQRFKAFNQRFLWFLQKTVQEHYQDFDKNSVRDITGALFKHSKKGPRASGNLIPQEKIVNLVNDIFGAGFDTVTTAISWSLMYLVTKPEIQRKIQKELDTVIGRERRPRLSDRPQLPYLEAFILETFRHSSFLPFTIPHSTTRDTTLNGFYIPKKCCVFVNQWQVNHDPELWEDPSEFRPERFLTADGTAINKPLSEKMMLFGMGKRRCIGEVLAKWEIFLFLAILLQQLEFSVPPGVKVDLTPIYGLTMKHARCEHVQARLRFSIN

[8] = HeLa cell cytotoxicity, dose response, cytotoxicity control for MgcRacGAP inhibitor project (AID 624300); assay type: functional
[9] = target: T6, Rac GTPase-activating protein 1 (Homo sapiens, UniProt Q9H0H5); experiment: MgcRacGAP GTPase-activating activity inhibitors, confirmation, biochemical, ADP Hunter fluorescence, primary and confirmatory (AID 624330); assay type: functional
T6 sequence (Q9H0H5 whole entry): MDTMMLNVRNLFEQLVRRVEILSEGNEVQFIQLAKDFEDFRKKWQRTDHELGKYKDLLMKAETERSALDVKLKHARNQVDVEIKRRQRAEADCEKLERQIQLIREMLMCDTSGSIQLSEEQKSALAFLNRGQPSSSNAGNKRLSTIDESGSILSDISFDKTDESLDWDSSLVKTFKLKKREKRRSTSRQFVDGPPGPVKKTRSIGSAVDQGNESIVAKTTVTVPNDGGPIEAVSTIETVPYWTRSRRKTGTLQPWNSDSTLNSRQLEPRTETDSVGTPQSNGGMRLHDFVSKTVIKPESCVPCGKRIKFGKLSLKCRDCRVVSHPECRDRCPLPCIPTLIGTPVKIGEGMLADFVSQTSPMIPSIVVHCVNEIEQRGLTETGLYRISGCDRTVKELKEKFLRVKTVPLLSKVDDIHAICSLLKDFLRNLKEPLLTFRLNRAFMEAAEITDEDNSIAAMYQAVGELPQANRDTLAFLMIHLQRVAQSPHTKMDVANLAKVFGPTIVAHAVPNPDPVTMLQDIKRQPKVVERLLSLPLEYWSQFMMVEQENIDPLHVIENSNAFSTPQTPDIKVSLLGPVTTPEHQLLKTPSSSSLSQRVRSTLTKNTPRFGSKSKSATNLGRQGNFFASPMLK

Nonstructural protein 1 = Nonstructural protein 1 (Influenza A virus, UniProt Q194T2); assay type: functional, Influenza A virus (A/California/07/2009(H1N1))
INS1 = experiment: beta cell apoptosis inhibitors, cytokine rescue, dose response, luminescence, retest (AID 449756); assay type: functional, cell-based; settings: Rattus norvegicus;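 also: cell death triggered by IL-1 beta plus TNF-alpha plus IFN-gamma mixture; protective hits raise ATP signal compared with cytokine alone wells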
Paired box protein Pax-8 = Paired box protein Pax-8 (Homo sapiens, UniProt Q06710); experiment: inhibitors of PAX8-driven TPO luciferase reporter, dose response, RMG-I cells, cherry-pick (AID 687027); assay type: functional, cell-based;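 also: luciferase reporter driven by Pax8 target thyroperoxidase promoter measured by SteadyGlo luminescence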
[10] = non-specific cell cytotoxicity, dose response, cytotoxicity control for PAX8 inhibitor project, plate reader, dry powder samples (AID 743021); assay type: functional, cell-based
[11] = Luminescence Cell-Based Dose Retest to Confirm Inhibitors of Cancer Stem Cells. [Related pubchem assays (depositor defined):AID2717, AID2721]; assay type: functional; settings: Homo sapiens
[12] = target: T7, Microphthalmia-associated transcription factor (Homo sapiens, UniProt O75030); experiment: TRPM1 promoter luciferase signal decrease, dose response, MITF inhibitor project, cell-based, SK-MEL-5, cherry-picked, set 3 (AID 493073); assay type: functional
T7 sequence (O75030 whole entry): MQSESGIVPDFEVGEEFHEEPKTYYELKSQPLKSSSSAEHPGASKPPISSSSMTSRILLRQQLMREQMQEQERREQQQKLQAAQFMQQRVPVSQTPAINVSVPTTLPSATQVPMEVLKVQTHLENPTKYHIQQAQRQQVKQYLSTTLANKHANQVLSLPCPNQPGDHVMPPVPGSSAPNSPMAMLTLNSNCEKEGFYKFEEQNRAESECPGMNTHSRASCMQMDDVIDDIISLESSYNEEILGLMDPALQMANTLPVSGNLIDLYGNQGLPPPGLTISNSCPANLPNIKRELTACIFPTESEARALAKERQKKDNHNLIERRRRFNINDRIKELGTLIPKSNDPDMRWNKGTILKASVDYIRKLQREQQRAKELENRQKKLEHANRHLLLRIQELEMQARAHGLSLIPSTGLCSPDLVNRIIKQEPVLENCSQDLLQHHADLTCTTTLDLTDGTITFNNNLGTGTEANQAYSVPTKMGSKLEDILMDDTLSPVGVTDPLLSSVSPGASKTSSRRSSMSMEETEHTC

[13] = Fluorescence-based cell-based high throughput dose response assay for inhibitors of the interaction of nucleotide-binding oligomerization domain containing 2 (NOD2) and the receptor-interacting serine-threonine kinase 2 (RIPK2).; assay type: functional; settings: Homo sapiens

Sequence of Genome polyprotein (P29990 2492-3391 limits assumed): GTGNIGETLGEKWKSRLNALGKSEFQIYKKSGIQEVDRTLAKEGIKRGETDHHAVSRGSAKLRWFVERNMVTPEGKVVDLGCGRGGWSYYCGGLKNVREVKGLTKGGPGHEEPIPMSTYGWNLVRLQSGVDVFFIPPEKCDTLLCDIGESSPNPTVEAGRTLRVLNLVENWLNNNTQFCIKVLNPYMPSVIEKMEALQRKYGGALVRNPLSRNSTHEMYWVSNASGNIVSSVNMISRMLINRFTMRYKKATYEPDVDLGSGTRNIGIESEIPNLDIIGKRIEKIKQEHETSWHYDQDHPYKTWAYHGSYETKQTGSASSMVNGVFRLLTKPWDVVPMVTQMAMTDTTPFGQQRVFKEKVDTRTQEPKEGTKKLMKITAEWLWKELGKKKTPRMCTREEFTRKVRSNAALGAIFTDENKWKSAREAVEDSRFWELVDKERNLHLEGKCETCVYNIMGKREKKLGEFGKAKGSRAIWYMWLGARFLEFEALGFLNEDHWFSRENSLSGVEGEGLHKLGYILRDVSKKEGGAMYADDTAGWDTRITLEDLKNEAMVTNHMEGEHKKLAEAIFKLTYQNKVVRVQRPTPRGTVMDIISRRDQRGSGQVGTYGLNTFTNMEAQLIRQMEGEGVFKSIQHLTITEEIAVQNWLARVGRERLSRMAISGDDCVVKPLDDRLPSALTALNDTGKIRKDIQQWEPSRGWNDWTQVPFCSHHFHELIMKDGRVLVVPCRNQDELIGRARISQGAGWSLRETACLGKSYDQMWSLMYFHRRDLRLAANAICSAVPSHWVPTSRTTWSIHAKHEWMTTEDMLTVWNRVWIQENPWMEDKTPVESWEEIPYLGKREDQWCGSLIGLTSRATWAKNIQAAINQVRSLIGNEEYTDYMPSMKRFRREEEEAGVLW
Sequence of Paired box protein Pax-8 (Q06710 whole entry): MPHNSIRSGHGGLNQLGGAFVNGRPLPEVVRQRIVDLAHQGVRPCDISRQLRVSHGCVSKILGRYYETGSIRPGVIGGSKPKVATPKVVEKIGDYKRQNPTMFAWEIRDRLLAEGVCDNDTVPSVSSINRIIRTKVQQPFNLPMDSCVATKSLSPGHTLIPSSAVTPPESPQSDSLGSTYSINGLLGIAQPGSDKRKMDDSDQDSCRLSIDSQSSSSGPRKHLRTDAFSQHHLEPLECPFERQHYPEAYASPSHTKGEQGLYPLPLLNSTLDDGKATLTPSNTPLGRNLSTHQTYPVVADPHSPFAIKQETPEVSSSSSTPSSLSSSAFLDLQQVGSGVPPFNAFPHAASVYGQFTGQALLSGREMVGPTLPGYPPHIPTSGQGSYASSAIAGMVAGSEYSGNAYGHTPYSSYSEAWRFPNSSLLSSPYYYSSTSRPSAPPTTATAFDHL
Sequence of Cytochrome P450 2D6 (P10635 whole entry): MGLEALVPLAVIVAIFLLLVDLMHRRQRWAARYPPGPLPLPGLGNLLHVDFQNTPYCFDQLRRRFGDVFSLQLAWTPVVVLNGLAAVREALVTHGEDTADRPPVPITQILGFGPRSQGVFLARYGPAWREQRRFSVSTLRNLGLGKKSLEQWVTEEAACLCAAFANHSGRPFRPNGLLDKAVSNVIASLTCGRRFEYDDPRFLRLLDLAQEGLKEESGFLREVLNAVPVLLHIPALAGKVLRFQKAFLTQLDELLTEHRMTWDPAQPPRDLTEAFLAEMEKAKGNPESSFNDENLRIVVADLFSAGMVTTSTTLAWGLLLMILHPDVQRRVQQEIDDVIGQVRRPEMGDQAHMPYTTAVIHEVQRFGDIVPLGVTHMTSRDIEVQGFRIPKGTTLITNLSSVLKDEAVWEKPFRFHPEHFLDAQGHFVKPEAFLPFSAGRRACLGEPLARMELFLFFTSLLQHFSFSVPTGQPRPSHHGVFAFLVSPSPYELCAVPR
Sequence of Nonstructural protein 1 (Q194T2 whole entry): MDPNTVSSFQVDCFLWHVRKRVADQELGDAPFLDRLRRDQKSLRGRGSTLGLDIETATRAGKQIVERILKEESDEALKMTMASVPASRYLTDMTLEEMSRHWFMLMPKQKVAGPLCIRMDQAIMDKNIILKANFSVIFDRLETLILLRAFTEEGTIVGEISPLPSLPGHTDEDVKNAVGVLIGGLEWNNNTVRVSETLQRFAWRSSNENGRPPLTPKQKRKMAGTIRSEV

In the case of `O=C(O)/C=C/C(=O)NCCCc1ccccc1`, the IC50 (cells [1]) is reported as > 29.9 µM (inactive), the EC50 [2] is reported as 7.06 µM (active) and the IC50 [3] is reported as > 29.9 µM (inactive). For the same molecule, the EC50 (cells [4]) was > 29.9 µM (inactive).

In the case of `Cc1nn(-c2ccc(F)cc2)c(O)c1C(c1cccc(O)c1)c1c(C)[nH]n(-c2ccc(F)cc2)c1=O` (configuration not stated), the AC50 [5] is reported as 1.06 µM (active), the EC50 (Protein RecA) is reported as 0.856 µM (active) and the IC50 (Genome polyprotein) is reported as 55.5 µM (active). For the same molecule, the IC50 [6] was 14.6 µM (active), the IC50 [7] was 12.2 µM (active) and the AC50 (Cytochrome P450 2D6) was 28.2 µM (inconclusive). The AC50 (Cytochrome P450 1A2) was 25.1 µM (inconclusive).

With `COC/C=C/C1=CC2=CC(=O)C(C)(OC(=O)c3cnc4ccccc4n3)C(=O)C2=CN1Cc1ccccc1` (configuration not stated) the IC50 [6] was 18.9 µM (active) and the IC50 [7] was 12.7 µM (active).

In the case of `COc1ccccc1-n1c(/C=C/c2ccc(O)cc2)nc2ccccc2c1=O`, the CC50 [8] is reported as 100 µM (active) and the IC50 [9] is reported as 106 µM (active).

For `COc1cc(N/N=C/c2ccccc2O)ncn1`, the IC50 (Nonstructural protein 1) was 5.73 µM (active), the AC50 (INS1) was 3.67 µM (active) and the IC50 (cells [1]) was > 29.9 µM (inactive). The EC50 [2] was > 29.9 µM (inactive), the IC50 [3] was 6.63 µM (active) and the EC50 (cells [4]) was > 29.9 µM (inactive).

In the case of `Oc1ccc(-c2[nH]ncc2-c2ccc(Cl)cc2)c(O)c1`, the CC50 [8] is reported as 100 µM (active) and the IC50 [9] is reported as 90.8 µM (active).

For `Cc1ccn2c(CNCC3OCCc4ccccc43)c(C(=O)N3CCCCCC3)nc2c1` (configuration not stated), the IC50 (cells [1]) was > 29.9 µM (inactive), the EC50 [2] was 4.98 µM (active) and the IC50 [3] was 9.37 µM (active). For the same molecule, the EC50 (cells [4]) was > 29.9 µM (inactive).

With `O=C(Nc1ccc(C(F)(F)F)cc1)N1C[C@@H]2N[C@H](C1)[C@H]2c1ccc(-c2cccc(F)c2)cc1` the AC50 (Paired box protein Pax-8) was 13.2 µM (active) and the AC50 [10] was 27.9 µM (active).

With `O=[N+]([O-])c1cc(S(=O)(=O)N2CCCCCC2)ccc1F` the AC50 [11] was 3.09 µM (active), the AC50 [12] was 9.53 µM (active) and the IC50 [13] was 1.53 µM (active).
